Measured values: the OligoGym collection
Values joined by “and” are separate entries in the source; they are usually repeats but may differ in a detail not shown here. Equal values may be shown once. After the bases stand the sugars from the 5' end (letter, count) and the backbone: PS all phosphorothioate, else s phosphorothioate and o phosphodiester by linkage. Methylation of C is not given here. e = 2'-O-(2-methoxyethyl) (MOE); k = constrained ethyl (cEt); d = 2'-deoxy (DNA); m = 2'-O-methyl

Biological target: HSD17B13
Settings: ASO, HepaRG

| Sequence | target mRNA inhibition (1 µM) | further results |
| --- | --- | --- |
| GCTTTTGTCCACCTTT (sugars k3 d9 k3 e1, PS) | 81% | target mRNA inhibition (0.02 µM): 0%; target mRNA inhibition (0.078 µM): 17%; target mRNA inhibition (0.313 µM): 37%; target mRNA inhibition (1.25 µM): 69%; target mRNA inhibition (5 µM): 83% |
| TATAATTACAACCTGG (sugars k3 d10 k3, PS) | 46% | – |
| AGGCTTATGAAGTTAG (sugars k3 d10 k3, PS) | 57% | – |
| GTAAGGTAAAGTCTAA (sugars k3 d10 k3, PS) | 37% | – |
| ACCAATATGCTCTGTC (sugars k3 d10 k3, PS) | 67% | target mRNA inhibition (0.02 µM): 19%; target mRNA inhibition (0.078 µM): 5%; target mRNA inhibition (0.313 µM): 41%; target mRNA inhibition (1.25 µM): 78%; target mRNA inhibition (5 µM): 97% |
| TAAACATCTCTGGGAC (sugars k3 d9 k3 e1, PS) | 32% | – |
| GTCCAGAATAGAGTTG (sugars k3 d10 k3, PS) | 60% | – |
| CATAACTTCATAGTGG (sugars k3 d1 m1 d8 k3, PS) | 38% | – |
| CTGTAAGAGTCAGTAT (sugars k3 d10 k3, PS) | 42% | – |
| TTATTCACCACGATTG (sugars k3 d10 k3, PS) | 40% | – |
| AACGACTCCAAGTAGG (sugars k3 d10 k3, PS) | 27% | – |
| AGTGCCAAACCAATGT (sugars kkdddddddddkekek, PS) | 71% | target mRNA inhibition (0.02 µM): 13%; target mRNA inhibition (0.078 µM): 2%; target mRNA inhibition (0.313 µM): 40%; target mRNA inhibition (1.25 µM): 61%; target mRNA inhibition (5 µM): 83% |
| ACCGTTTTGGGCTAAT (sugars kkdddddddddkekek, PS) | 76% | target mRNA inhibition (0.02 µM): 23%; target mRNA inhibition (0.078 µM): 24%; target mRNA inhibition (0.313 µM): 37%; target mRNA inhibition (1.25 µM): 66%; target mRNA inhibition (5 µM): 78% |
| CAGCATCAAGACATTC (sugars k3 d10 k3, PS) | 72% and 70% | – |
| AATATGTCCAGGTTGA (sugars k3 d10 k3, PS) | 64% | – |
| GTCTTGGTAATCTCTT (sugars k3 d10 k3, PS) | 37% | – |
| AACTAGTGGTAATGGT (sugars k3 d10 k3, PS) | 32% | – |
| TTATTAGAAGTCAGCC (sugars k3 d10 k3, PS) | 36% | – |
| TCCTTGTGTAGTCCTA (sugars k3 d10 k3, PS) | 61% | – |
| TTCTTATGTAATAGCC (sugars kkdddddddddkekek, PS) | 78% | target mRNA inhibition (0.02 µM): 8%; target mRNA inhibition (0.078 µM): 28%; target mRNA inhibition (0.313 µM): 52%; target mRNA inhibition (1.25 µM): 79%; target mRNA inhibition (5 µM): 82% |
| TTTCTTATGTAATAGC (sugars k3 d10 k3, PS) | 76% | – |
| CTTCACCAACGACTCC (sugars k3 d10 k3, PS) | 8% | – |
| TCTGGGACCAAGGATA (sugars kkdddddddddkekek, PS) | 56% | – |

| Sequence | target mRNA inhibition (1 µM) | further results |
| --- | --- | --- |
| CAAGACAGACCAAGTA (sugars k3 d10 k3, PS) | 27% | – |
| GGATATACTGTCCCAG (sugars k3 d10 k3, PS) | 9% | – |
| GCAATGAGATTACCCC (sugars k3 d10 k3, PS) | 83% | target mRNA inhibition (0.02 µM): 3%; target mRNA inhibition (0.078 µM): 26%; target mRNA inhibition (0.313 µM): 58%; target mRNA inhibition (1.25 µM): 83%; target mRNA inhibition (5 µM): 89% |
| AGAGTTGCACCGTTTT (sugars k3 d9 k3 e1, PS) | 78% | target mRNA inhibition (0.02 µM): 0%; target mRNA inhibition (0.078 µM): 0%; target mRNA inhibition (0.313 µM): 26%; target mRNA inhibition (1.25 µM): 55%; target mRNA inhibition (5 µM): 45% |
| CTCTCCATCATCGATG (sugars k3 d10 k3, PS) | 0% | – |
| TATTGGTAAGTATTCC (sugars k3 d9 k3 e1, PS) | 48% | – |
| TTGAATAGCAAGCCAA (sugars kkdddddddddkekek, PS) | 27% | – |
| GTGCTGAGAAGATCGG (sugars k3 d10 k3, PS) | 0% | – |
| AAAACTTCACCAACGA (sugars k3 d10 k3, PS) | 29% | – |
| GATCTGAGTTACATTA (sugars k3 d10 k3, PS) | 69% | – |
| CGGTCACCTTTCATAA (sugars kkdddddddddkekek, PS) | 70% | – |
| GTAATGAGAACAATCT (sugars k3 d10 k3, PS) | 48% | – |
| ACAAGAGGATAGTCCA (sugars k3 d10 k3, PS) | 64% | – |
| GGAGTGCATCTTAAGA (sugars kkdddddddddkekek, PS) | 34% | – |
| GAGATAAAGCTGCCTG (sugars k3 d10 k3, PS) | 67% | – |
| TACTATTCTCCAACTC (sugars k3 d10 k3, PS) | 47% | – |
| TTTAGTTGGTAGCTTG (sugars k3 d10 k3, PS) | 63% | – |
| TTGGACATGAAGATTA (sugars k3 d10 k3, PS) | 18% | – |
| TGGCTATAGTAATTGC (sugars k3 d10 k3, PS) | 34% | – |
| CAGATTGGAATGCTAC (sugars k3 d9 k3 e1, PS) | 61% | – |
| TAGTATAGTTATCTTC (sugars k3 d9 k3 e1, PS) | 28% | – |
| GAAATAACTGTTCTCC (sugars k3 d10 k3, PS) | 32% | – |
| TCTGATTACAGCATCA (sugars k3 d10 k3, PS) | 48% | – |

| Sequence | target mRNA inhibition (1 µM) | further results |
| --- | --- | --- |
| AGTAATTCTAAACTAG (sugars k3 d10 k3, PS) | 31% | – |
| TTAAGAGAAGGTGCAC (sugars k3 d10 k3, PS) | 38% | – |
| CCACATACGCATGCGC (sugars k3 d10 k3, PS) | 68% | target mRNA inhibition (0.02 µM): 3%; target mRNA inhibition (0.078 µM): 1%; target mRNA inhibition (0.313 µM): 43%; target mRNA inhibition (1.25 µM): 63%; target mRNA inhibition (5 µM): 88% |
| TCCAGGTTGAGATAAA (sugars k3 d10 k3, PS) | 70% | – |
| ATCTAGAATTAAGGGC (sugars k3 d10 k3, PS) | 41% | – |
| AGATCGGCTGGATATA (sugars k3 d10 k3, PS) | 27% | – |
| GGAGUGCATCTTAAGA (sugars k3 d1 m1 d8 k3, PS) | 32% | – |
| TATTGGTAAGTATTCC (sugars k3 d10 k3, PS) | 67% | – |
| CCAGAATAGAGTTGCA (sugars k3 d10 k3, PS) | 62% | – |
| TCACCTGATTTAGAGA (sugars k3 d10 k3, PS) | 13% | – |
| ACCCTTAGGAAAGCTC (sugars k3 d10 k3, PS) | 52% | – |
| AATTATTTCTTGCGAG (sugars k3 d10 k3, PS) | 16% | – |
| GTAAGTATTCCATCTA (sugars k3 d1 m1 d8 k3, PS) | 43% | – |
| AAATCTTGTGTAACTG (sugars k3 d10 k3, PS) | 41% | – |
| ATAGGCTAAAATGGTC (sugars k3 d10 k3, PS) | 61% | – |
| CTTCATAGTGGACTTC (sugars k3 d1 m1 d8 k3, PS) | 35% | – |
| AAACATCTCTGGGACC (sugars k3 d10 k3, PS) | – | target mRNA inhibition (0.02 µM): 0%; target mRNA inhibition (0.078 µM): 0%; target mRNA inhibition (0.313 µM): 33%; target mRNA inhibition (1.25 µM): 56%; target mRNA inhibition (5 µM): 78% |
| GTAATTGGCTCTTGAG (sugars k3 d10 k3, PS) | 44% | – |
| CATTACATATCAATGC (sugars k3 d10 k3, PS) | 29% | – |
| GGTGGACTTCAGAGTT (sugars k3 d10 k3, PS) | 26% | – |
| GTCATAAAAATCGCTG (sugars k3 d10 k3, PS) | 72% | target mRNA inhibition (0.02 µM): 25%; target mRNA inhibition (0.078 µM): 34%; target mRNA inhibition (0.313 µM): 51%; target mRNA inhibition (1.25 µM): 70%; target mRNA inhibition (5 µM): 86% |
| GCTTTTGTGATCCAAA (sugars k3 d10 k3, PS) | 43% | – |
| AGAATAGAGTTGCACC (sugars kkdddddddddkekek, PS) | 59% | – |

| Sequence | target mRNA inhibition (1 µM) | further results |
| --- | --- | --- |
| TGCACCGTTTTGGGCT (sugars k3 d1 m1 d8 k3, PS) | 55% | – |
| GATGCTCCATAATAAT (sugars k3 d10 k3, PS) | 42% | – |
| GGCTACAGATTGGAAT (sugars k3 d1 m1 d8 k3, PS) | 40% | – |
| CAAGCTACCTCCAAAT (sugars k3 d10 k3, PS) | 25% | – |
| ATGCTACTTGAACAGT (sugars k3 d9 k3 e1, PS) | 50% | – |
| TAAACTAGTGGTAATG (sugars k3 d10 k3, PS) | 14% | – |
| GTCCTAGGGAGGAGGT (sugars k3 d10 k3, PS) | 36% | – |
| ACTGATTTAGTTGGTA (sugars k3 d10 k3, PS) | 55% | – |
| CATATGTGAAGAGCTG (sugars kkdddddddddkekek, PS) | 35% | – |
| TAGGAGTAGATGATGG (sugars k3 d10 k3, PS) | 15% | – |
| TAAGCAGAATTGTGAA (sugars k3 d9 k3 e1, PS) | 52% | – |
| GGAACAATATGGGATG (sugars k3 d10 k3, PS) | 36% | – |
| CAGTCTTAAACCTTCC (sugars k3 d9 k3 e1, PS) | 74% and 50% | target mRNA inhibition (0.02 µM): 0%; target mRNA inhibition (0.078 µM): 0%; target mRNA inhibition (0.313 µM): 47%; target mRNA inhibition (1.25 µM): 43%; target mRNA inhibition (5 µM): 79% |
| CCATCTATCAGACTTC (sugars k3 d1 m1 d8 k3, PS) | 56% | – |
| AAATTGGTTTCGAATC (sugars k3 d10 k3, PS) | 32% | – |
| ATAAGAGATGAGTAGG (sugars k3 d10 k3, PS) | 56% | – |
| GTATAGTTATCTTCTC (sugars k3 d1 m1 d8 k3, PS) | 54% | – |
| AAAACCGTCAAATAGG (sugars k3 d10 k3, PS) | 28% | – |
| TTCTTGAGAGTGATTG (sugars k3 d10 k3, PS) | 52% | – |
| GATTAGTCTTGATGTA (sugars kkdddddddddkekek, PS) | 56% | – |
| TCTTAAACCTTCCCTG (sugars k3 d9 k3 e1, PS) | 38% | – |
| TGTAGTGGGAGTCGGA (sugars k3 d1 m1 d8 k3, PS) | 50% | – |
